Format: physicochemical
Description: 0.42 g (equal to 2.5 mMoles) of 2-chloroadenine were suspended in 50 ml of DMF and heated while being stirred. Aliquots of DMF were added until a complete hot solubilisation was obtained. 100 ml of solvent were necessary to obtain the solubilisation of the 2-chloroadenine.
A solubilisation test was also carried out of 2-chloroadenine in 25% KOH in order to increase the solubilisation. 4.05 grams of 2-chloroadenine were resuspended in KOH being stirred. Aliquots of (25% w:v) KOH were added until complete solubilisation was obtained. Even after the addition of 100 ml of 25% KOH, the 2-chloroadenine remained practically undissolved.

solubility in 25% KOH: practically insoluble
volume of solvent necessary to obtain the solubilisation: 100 mL
Compound: Nc1nc(Cl)nc2nc[nH]c12 [2-chloroadenine]

— patent US8012717B2, “Method for the production of cladribine” (Explora Laboratories S.A., priority 2006, dated 2011)
